Literature values in PMC11859340, “The Therapeutic Potential of Spirooxindoles in Cancer: A Focus on p53–MDM2 Modulation” (Pharmaceuticals, 2025).
Read-outs that look alike come from different tables or passages of the source.

Legend:
[1] = test system: BT-474 (mutated-type p53); design: method as in PMID 29210587; conditions: at 20 μM, MTT
MDM2 [2] = test system: MDM2; design: method as in PMID 29210587; conditions: at 20 μM, HTRF method
ZR-75-1 (wild-type p53) = test system: ZR-75-1 (wild-type p53); design: method as in PMID 29210587; conditions: at 20 μM, MTT
MCF7 = test system: MCF7; design: method as in PMID 29210587; conditions: at 20 μM, MTT
HCT116 (colon) [3] = test system: HCT116 (colon); design: method as in PMID 30508794; conditions: MTT; read-out: IC50 against HCT116
HeLa (cervical) = test system: HeLa (cervical); design: method as in PMID 37935912; conditions: SRB; read-out: IC50 against HeLa
[4] = design: method as in PMID 30508794; conditions: MTT; read-out: IC50 against PC3
CT26 = test system: CT26; design: method as in PMID 28027532; conditions: MTT; read-out: IC50 against CT26
A2870T “ovarian” = test system: A2870T “ovarian”; design: method as in PMID 28027532; conditions: MTT; read-out: IC50 against A2870T
HCT116 (colon) [5] = test system: HCT116 (colon); design: method as in PMID 30802707; conditions: MTT; read-out: IC50 against HCT116
A549 “lung” = test system: A549 “lung”; design: method as in PMID 28027532; conditions: MTT; read-out: IC50 against A549
VERO-B (normal) cells = conditions: read-out: IC50 against VERO-B; MTT, normal cells
HepG2 (liver) [6] = test system: HepG2 (liver); design: method as in PMID 30802707; conditions: MTT; read-out: IC50 against HepG2
HCT116 “colon” = test system: HCT116 “colon”; design: method as in PMID 28027532; conditions: MTT; read-out: IC50 against HCT116
H1975 “lung” = test system: H1975 “lung”; design: method as in PMID 28027532; conditions: MTT; read-out: IC50 against H1975
[7] = test system: HEK293T (embryonic kidney); design: method as in doi:10.1080/10426507.2020.1723590; conditions: MTT; read-out: IC50 against HEK293T
HepG2 (liver) [8] = test system: HepG2 (liver); design: method as in PMID 30508794; conditions: MTT; read-out: IC50 against HepG2
MCF7 “breast” = test system: MCF7 “breast”; design: method as in PMID 28027532; conditions: MTT; read-out: IC50 against MCF7
PC-3 (prostate) = test system: PC-3 (prostate); design: method as in PMID 30802707; conditions: MTT; read-out: IC50 against PC-3
A2870s = test system: A2870s; design: method as in PMID 28027532; conditions: MTT; read-out: IC50 against A2870s
A549 (lung) = test system: A549 (lung); design: method as in doi:10.1080/10426507.2020.1723590; conditions: MTT; read-out: IC50 against A549
breast MCF7 = test system: breast MCF7; design: method as in PMID 31047751; conditions: CCK-8
lung A549 = test system: lung A549; design: method as in PMID 31047751; conditions: CCK-8
MDM2 [9] = biological target: MDM2; design: method as in PMID 31047751; conditions: fluorescence polarization assay; read-out: Ki, MDM2 inhibitory effect
colon HCT116 = test system: colon HCT116; design: method as in PMID 31047751; conditions: CCK-8
[10] = test system: transplanted cancer (lung cancer); design: method as in PMID 32738990; conditions: 100, 200, 400 mg/kg

C[C@H]1CN(C(=O)OC(C)(C)C)[C@@]2(C(=O)Nc3cc(Cl)ccc32)[C@@H]([N+](=O)[O-])[C@@H]1c1ccc(Cl)cc1
% inhibition, BT-474 [1]: 50.00%
inhibitory activity against MDM2 (MDM2 [2]): 84.86
% inhibition, ZR-75-1 (ZR-75-1 (wild-type p53)): 82.28%
% inhibition, MCF7 (MCF7): 93.03%

N.N.[Cl][Pt][Cl] [cisplatin, reference compound]
IC50 (HCT116 (colon) [3]): 12.6 ± 0.5 µM
IC50 (HeLa (cervical)): 2 ± 0.3 µM
IC50 [4]: 5 ± 0.56 µM
IC50 (CT26): 23.7 µM
IC50 (A2870T “ovarian”): 27.3 µM
IC50 (HCT116 (colon) [5]): 12.6 ± 2 µM
IC50 (A549 “lung”): 15.6 µM
IC50 (VERO-B (normal) cells): 5 ± 0.2 µM
IC50 (HepG2 (liver) [6]): 5.5 ± 1 µM
IC50 (HCT116 “colon”): 17.4 µM
IC50 (H1975 “lung”): 9.7 µM
IC50 [7]: 12.4 ± 3.9 µM
IC50 (HepG2 (liver) [8]): 5.5 ± 0.3 µM
IC50 (MCF7 “breast”): 7.8 µM
IC50 (PC-3 (prostate)): 5 ± 0.5 µM
IC50 (A2870s): 20.9 µM
IC50 (A549 (lung)): 44.1 ± 3.9 µM

O=C(C1=CCC(c2ccc(Br)cc2)C2(S1)C(=O)Nc1ccccc12)c1ccccc1 (centres unmarked) [150 (R^1 = H, R^2 = Ph, R^3 = 4-BrC6H4)]
IC50 (breast MCF7; read-out: IC50 against MCF7): 6.8 µM
% inhibition, MCF7 (breast MCF7; at 10 μM): 69.4%
IC50 (lung A549; read-out: IC50 against A549): 2.1 µM
% inhibition, A549 (lung A549; at 10 μM): 75.1%
Ki (MDM2 [9]): 43.8 µM
IC50 (colon HCT116; read-out: IC50 against HCT116): 1.7 µM
% inhibition, HCT116 (colon HCT116; at 10 μM): 91.9%

CN1C(=O)C2(C(C#N)=C(N)Oc3cc4oc(-c5ccccc5)cc(=O)c4c(O)c32)c2cc(Br)ccc21 (centres unmarked) [compound 128]
transplanted cancer in mice [10]: Inhibition of transplanted cancer in mice
